GI50 and IC50 data for 24 compounds are collected here from US9546179B2, “Heterocycle amido alkyloxy substituted quinazoline derivative and use thereof” (priority 2011, dated 2017).

Assay [1] concerns Human lung cancer cells (A549). The assay can be described thus: Anticancer effect in vitro on A549 cells (MTT, GI50). The class given is cell-based. Conditions: A549, 72 hours. As for the experimental part:
The inhibitory effect on the cancer cells of the compounds prepared in Example 1-Example 13, Example 20, Example 48, Example 49 and Example 57 was determined in vitro using cancer cells. The results are shown in table 2, and the specific detection methods are as follows:
Human lung cancer cells were (A549, purchased from Shanghai FuMeng Gene Bio-technology Co., Ltd.) cultured in DMEM containing 2 m M/L-glutamine and 10% FBS, and inoculated in 96-well plate, 200 μL/well and 2000 cells per well; the plate was preincubated for 24 hours under the condition of 5% CO2 and 100% relative humidity at 37° C., allowing for cell adherence.
When the cells adhered, the supernatant was removed, and 200 μL drug-containing culture medium was added with different concentration of compounds into each well (in concentration of 20 μg/ml, 12.5 µg/ml, 6.25 μg/ml, […], 1.5625 μg/ml and 0.78125 μg/ml), 3 multiple wells were set up for each drug concentration as well as blank control (cell culture medium without cells), and drug-free control (with no drugs, filled with complete medium in equal amount only), cultured for 72 hours under the condition of 5% CO2 incubator at 37° C. (100% relative humidity).
After the culture ended, the supernatant was carefully removed, and adding 200 μl DMEM culture medium containing 3% FBS with 500 μg/ml MTT into each well, and culturing for 4 hours under the condition of 5% CO2 incubator at 37° C. (100% relative humidity). After the supernatant was discarded, 150 μL DMSO was added in each well for solving. the GI50 value was measured by detecting the absorbance in the 570 nm wavelength.

Assay [2] addresses T1, receptor tyrosine kinase EGFR (Homo sapiens, UniProt P00533).
T1 construct: purchased Shanghai 3bio Technology Co., Ltd. Lot No. 4018780925
Briefly: Inhibitory effect on receptor tyrosine kinase EGFR (ELISA, Poly(Glu, Tyr)4:1, PY99 antibody). The assay is classed as biochemical. Conditions: ATP 4 μM, 1 hour at 37° C. The procedure, abridged:
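Poly(Glu,Tyr)4:1-coated plates; kinase reaction with 4 μM ATP and compound at 1.0000–0.00024 μg/ml, run 1 h at 37 °C. Phosphotyrosine detected with PY99 and HRP anti-mouse IgG, OPD colour read at A492, and inhibition rate calculated.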
On the technique in general: An ELISA detects its analyte on a solid surface through an enzyme-linked reagent.

SMILES strings stand for the structures.

T1 sequence (P00533 25-1210): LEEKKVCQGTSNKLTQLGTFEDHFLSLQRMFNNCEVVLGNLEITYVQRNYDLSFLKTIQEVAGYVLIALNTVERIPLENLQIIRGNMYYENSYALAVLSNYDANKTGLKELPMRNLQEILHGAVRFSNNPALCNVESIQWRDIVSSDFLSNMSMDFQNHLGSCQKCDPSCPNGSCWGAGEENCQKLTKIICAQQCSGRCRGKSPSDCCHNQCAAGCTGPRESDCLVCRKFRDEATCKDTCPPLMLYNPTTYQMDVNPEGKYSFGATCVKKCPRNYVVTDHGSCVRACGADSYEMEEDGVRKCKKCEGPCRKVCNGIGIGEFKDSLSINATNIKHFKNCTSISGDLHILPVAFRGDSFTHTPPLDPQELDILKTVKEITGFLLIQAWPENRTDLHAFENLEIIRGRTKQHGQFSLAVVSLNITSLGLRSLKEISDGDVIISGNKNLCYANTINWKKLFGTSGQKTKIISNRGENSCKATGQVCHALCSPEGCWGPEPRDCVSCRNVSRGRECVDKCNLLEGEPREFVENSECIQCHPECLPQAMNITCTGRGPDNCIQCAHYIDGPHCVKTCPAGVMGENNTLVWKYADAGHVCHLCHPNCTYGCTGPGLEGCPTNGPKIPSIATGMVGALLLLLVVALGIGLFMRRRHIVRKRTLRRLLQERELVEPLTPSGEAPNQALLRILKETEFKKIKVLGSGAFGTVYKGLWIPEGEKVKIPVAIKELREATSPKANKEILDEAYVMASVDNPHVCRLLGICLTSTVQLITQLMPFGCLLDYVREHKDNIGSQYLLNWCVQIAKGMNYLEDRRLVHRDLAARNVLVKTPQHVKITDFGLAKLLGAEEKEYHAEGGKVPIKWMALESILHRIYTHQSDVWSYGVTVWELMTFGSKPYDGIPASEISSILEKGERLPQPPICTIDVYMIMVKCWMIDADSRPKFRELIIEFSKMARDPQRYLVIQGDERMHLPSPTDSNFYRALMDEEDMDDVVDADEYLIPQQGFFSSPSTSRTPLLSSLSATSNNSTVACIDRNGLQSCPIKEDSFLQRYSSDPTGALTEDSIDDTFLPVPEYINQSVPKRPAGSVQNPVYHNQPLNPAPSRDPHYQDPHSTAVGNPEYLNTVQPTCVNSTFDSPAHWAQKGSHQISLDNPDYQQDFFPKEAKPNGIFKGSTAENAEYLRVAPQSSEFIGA

A word on the GI50: it is the concentration at which growth is held to half of that of the control. As usually defined, the IC50 is the concentration that inhibits the measured activity by half. Read a high IC50 as lower potency. In the case of `COc1cc2ncnc(Nc3cc(Cl)ccc3F)c2cc1OCCCN1CC[C@H]2OCC[C@H]21` (relative stereo) [Example 20, 4-(5′-chloro-2′-fluorophenylamino)-6-[3-(cis-hexahydrofuro[3,2-b]pyrrole-4-yl)-propoxy]-7-methoxyquinazoline], the GI50 in assay [1] came out at 59.5 µM. Further, the half-maximal inhibitory concentration (IC50) in assay [2] was in the range of 10 to 100 nM.

`COc1cc2ncnc(Nc3ccc(F)c(Cl)c3)c2cc1OCCCN1CC2(COC2)C1` [Example 1, 4-(3′-chloro-4′-fluorophenylamino)-6-[3-(2-oxa-6-azaspiro[3.3]heptane-6-yl)-propoxy]-7-methoxyquinazoline] had a GI50 in assay [1] of 39.7 µM. The compound further yielded an IC50 in assay [2] of 10 to 100 nM.

The compound `COc1cc2ncnc(Nc3ccc(F)c(Cl)c3)c2cc1OCCN1CCC2(COC2)C1` [Example 3, 4-(3′-chloro-4′-fluorophenylamino)-6-[2-(2-oxa-6-azaspiro[3.4]octane-6-yl)-oxethyl]-7-methoxyquinazoline] yielded a GI50 in assay [1] of 10.2 µM. For the same compound, the concentration for half-maximal inhibition (IC50) in assay [2] is 100 to 1000 nM.

In turn, `COc1cc2ncnc(Nc3ccc(F)c(Cl)c3)c2cc1OCCCN1CC2(CCOCC2)C1` [Example 4, 4-(3′-chloro-4′-fluorophenylamino)-6-[3-(7-oxa-2-azaspiro[3.5]nonane-2-yl)-propoxy]-7-methoxyquinazoline] showed a 50% growth inhibitory concentration (GI50) in assay [1] of 8.5 µM. The IC50 in assay [2] was 10 to 100 nM.

In turn, `COc1cc2ncnc(Nc3ccc(F)c(Cl)c3)c2cc1OCCCN1CCC2(CC1)COC2` [Example 5, 4-(3′-chloro-4′-fluorophenylamino)-6-[3-(2-oxa-7-azaspiro[3.5]nonane-7-yl)-propoxy]-7-methoxyquinazoline] displayed a 50% growth inhibitory concentration (GI50) in assay [1] of 8.6 µM. Also, the IC50 in assay [2] was 10 to 100 nM.

Turning to `COc1cc2ncnc(Nc3ccc(F)c(Cl)c3)c2cc1OCCN1CCC2(CC1)COC2` [Example 6], halving of growth in assay [1] (GI50) required 20.7 µM. In addition, in assay [2], the IC50 fell in the range of 10 to 100 nM.

For the compound `COc1cc2ncnc(Nc3ccc(F)c(Cl)c3)c2cc1OCCCN1CCC2(CCOC2)C1` (stereo not drawn) [Example 7, 4-(3′-chloro-4′-fluorophenylamino)-6-[3-(2-oxa-7-azaspiro[4.4]nonane-7-yl)-propoxy]-7-methoxyquinazoline], the GI50 in assay [1] was found to be 15.1 µM. The concentration for half-maximal inhibition (IC50) in assay [2] was in the range of 10 to 100 nM.

`COc1cc2ncnc(Nc3ccc(F)c(Cl)c3)c2cc1OCCN1CCC2(CCOC2)C1` (stereo not drawn) [Example 8, 4-(3′-chloro-4′-fluorophenylamino)-6-[2-(2-oxa-7-azaspiro[4.4]nonane-7-yl)-oxethyl]-7-methoxyquinazoline] registered a concentration for 50% growth inhibition (GI50) in assay [1] of 23.4 µM. The compound also returned a half-maximal inhibitory concentration (IC50) in assay [2] of 10 to 100 nM.

Turning to `COc1cc2ncnc(Nc3ccc(F)c(Cl)c3)c2cc1OCCCN1CCC2(CCOCC2)C1` [Example 9, 4-(3′-chloro-4′-fluorophenylamino)-6-[3-(8-oxa-2-azaspiro[4.5]decane-2-yl)-propoxy]-7-methoxyquinazoline], the GI50 in assay [1] worked out at 24.3 µM. This compound gave an IC50 in assay [2] of 10 to 100 nM.

`COc1cc2ncnc(Nc3ccc(F)c(Cl)c3)c2cc1OCCN1CCC2(CCOCC2)C1` [Example 10, 4-(3′-chloro-4′-fluorophenylamino)-6-[2-(8-oxa-2-azaspiro[4.5]decane-2-yl)-oxethyl]-7-methoxyquinazoline] showed a GI50 in assay [1] of 35.2 µM. This compound returned an IC50 in assay [2] of 10 to 100 nM.

As to `COc1cc2ncnc(Nc3ccc(F)c(Cl)c3)c2cc1OCCN1CC2CCC(C1)O2` [Example 11, 4-(3′-chloro-4′-fluorophenylamino)-6-[2-(8-oxa-3-azabicyclo[3.2.1]octane-3-yl)-oxethyl]-7-methoxyquinazoline], the concentration for 50% growth inhibition (GI50) in assay [1] amounted to 26.6 µM. For the same compound, in assay [2], the IC50 fell in the range of 100 to 1000 nM.

Consider `COc1cc2ncnc(Nc3ccc(F)c(Cl)c3)c2cc1OCCN1C2CCC1COC2` [Example 13, 4-(3′-chloro-4′-fluorophenylamino)-6-[2-(3-oxa-8-azabicyclo[3.2.1]octane-8-yl)-oxethyl]-7-methoxyquinazoline], for which halving of growth in assay [1] (GI50) required 28.8 µM. In assay [2], the IC50 was 10 to 100 nM.

In assay [1], `C#Cc1cccc(Nc2ncnc3cc(OC)c(OCCCN4CC5(CNC(=O)O5)C4)cc23)c1` [Example 48] registered a GI50 of 17.8 µM. This compound returned a concentration for half-maximal inhibition (IC50) in assay [2] of 0.1 to 10 nM.

Consider `C#Cc1cccc(Nc2ncnc3cc(OC)c(OCCCN4CC5(C4)CN(C)C(=O)O5)cc23)c1` [Example 49], for which, in assay [1], the concentration for 50% growth inhibition (GI50) is 21 µM. Also, the IC50 in assay [2] lay in the range of 0.1 to 10 nM.

In the case of `COc1cc2ncnc(Nc3ccc(F)c(Cl)c3)c2cc1OCCN1CC2(CNC(=O)C2)C1` [Example 57, 4-(3′-chloro-4′-fluorophenylamino)-6-[2-(2,6-diazaspiro[3.4]octane-7-ketone-2-yl)-oxethyl]-7-m ethoxyquinazoline], it took 23.8 µM to inhibit growth in assay [1] by half (GI50). Moreover, the concentration for half-maximal inhibition (IC50) in assay [2] was more than 1000 nM.

Turning to `COc1cc2ncnc(Nc3ccc(F)c(Cl)c3)c2cc1OCCCN1CC2(CNC(=O)O2)C1` [Example 90, 4-(3′-chloro-4′-fluorophenylamino)-6-[3-(5-oxa-2,7-diazaspiro[3.4]octane-6-ketone-2-yl)-propoxy]-7-methoxyquinazoline], in assay [2], the 50% inhibitory concentration (IC50) lay within 0.1 to 10 nM.

In turn, `COc1cc2ncnc(Nc3ccc(F)c(Cl)c3)c2cc1OCCCN1CC2(C1)CN(C)C(=O)O2` [Example 91, 4-(3′-chloro-4′-fluorophenylamino)-6-[3-(7-methyl-5-oxa-2,7-diazaspiro[3.4]octane-6-ketone-2-yl)-propoxy]-7-methoxyquinazoline] showed an IC50 in assay [2] of 10 to 100 nM.

In assay [2], `COc1cc2ncnc(Nc3ccc(F)c(Cl)c3)c2cc1OCCCN1CCC2(CCN(C(C)=O)C2)C1` (stereo not drawn) [Example 92, 4-(3′-chloro-4′-fluorophenylamino)-6-[3-(7-acetyl-2,7-diazaspiro[4.4]-nonane-2-yl)-propoxy]-7-methoxyquinazoline] returned an IC50 of 10 to 100 nM.

`COc1cc2ncnc(Nc3ccc(F)c(Cl)c3)c2cc1OCCCN1CC2CCC(C1)O2` [Example 93, 4-(3′-chloro-4′-fluorophenylamino)-6-[3-(8-oxa-3-aza-azabicyclo[3.2.1]octane-3-yl)-propoxy]-7-methoxyquinazoline]: the IC50 in assay [2] fell in the range of 100 to 1000 nM.

In assay [2], `COc1cc2ncnc(Nc3ccc(F)c(Cl)c3)c2cc1OCCCN1CCC2(CC1)CNC(=O)C2` [Example 94, 4-(3′-chloro-4′-fluorophenylamino)-6-[3-(2,8-diazaspiro[4.5]decane-3-ketone-8-yl)-propoxy]-7-methoxyquinazoline] displayed a 50% inhibitory concentration (IC50) of 10 to 100 nM.

For the compound `[2H]C([2H])([2H])Oc1cc2ncnc(Nc3ccc(F)c(Cl)c3)c2cc1OCCCN1CCC2(CC1)CNC(=O)O2` [Example 95, 4-(3′-chloro-4′-fluorophenylamino)-6-[3-(1-oxa-3,8-diazaspiro[4.5]decane-2-ketone-8-yl)-propoxy]-7-deuterated methoxyquinazoline], the IC50 in assay [2] lay in the range of 10 to 100 nM.

`[2H]C([2H])([2H])Oc1cc2ncnc(Nc3ccc(F)c(Cl)c3)c2cc1OCCCN1CCC2(C1)CN(C)C(=O)O2` (stereo not drawn) [Example 96, 4-(3′-chloro-4′-fluorophenylamino)-6-[3-(3-methyl-1-oxa-3,7-diazaspiro[4.4]nonane-2-ketone-7-yl)-propoxy]-7-deuterated methoxyquinazoline] showed a concentration for half-maximal inhibition (IC50) in assay [2] of 10 to 100 nM.

`[2H]C([2H])([2H])Oc1cc2ncnc(Nc3ccc(F)c(Cl)c3)c2cc1OCCCN1CC2(CNC(=O)O2)C1` [Example 97, 4-(3′-chloro-4′-fluorophenylamino)-6-[3-(5-oxa-2,7-diazaspiro[3.4]octane-6-ketone-2-yl)-propoxy]-7-deuterated methoxyquinazoline] showed an IC50 in assay [2] of 100 to 1000 nM.

For the compound `[2H]C([2H])([2H])Oc1cc2ncnc(Nc3ccc(F)c(Cl)c3)c2cc1OCCCN1CC2(C1)CN(C)C(=O)O2` [Example 98, 4-(3′-chloro-4′-fluorophenylamino)-6-[3-(7-methyl-5-oxa-2,7-diazaspiro[3.4]octane-6-ketone-2-yl)-propoxy]-7-deuterated methoxyquinazoline], in assay [2], the half-maximal inhibitory concentration (IC50) lay in the range of 0.1 to 10 nM.
